Non-standard residues stand in square brackets, D forms with d. Residues, ends and D or L forms follow the SMILES beside them. *: point of attachment. 2Nal = N[C@@H](Cc1ccc2ccccc2c1)C(=O)O; Cha = N[C@@H](CC1CCCCC1)C(=O)O; Boc = CC(C)(C)OC(=O)*
Assays:
[1] = test system: peptide-producing enzyme (Mono S fraction) from Empedobacter brevis strain FERM BP-8113; assay: Enzyme inhibitors: effect on production of L-alanyl-L-glutamine; format: biochemical; conditions: for Inhibition of the enzyme (in words): serine enzyme inhibitors at 10 mM
[2] = test system: peptide-producing enzyme (Mono S fraction) from Empedobacter brevis strain FERM BP-8113; assay: Enzyme substrate specificity (1)-(10), (13), (14); format: biochemical; set-up: key: +: those for which production was confirmed but which were unable to be quantified due to the absence of a standard; a trace amount
From the text: Ester specificity was examined in the case of using L-amino acid ester for the carboxy component. […] The amounts of L-Ala-L-Gln produced in this reaction are shown in Table 4 (HCl represents hydrochloride in Table 4). Peptide production was examined in the case of using L-alanine methyl ester for the carboxy component and using various L-amino acids for the amine component. […] (The “+” mark indicates those peptides for which production was confirmed but which were unable to be quantified due to the absence of a standard, while “tr” indicates a trace amount.) Peptide production was examined in the case of using various types of L-amino acid methyl esters for the carboxy component and using L-glutamine for the amine component. […] Peptide production was examined in the case of using various L-amino acid methyl esters for the carboxy component and various L-amino acids for the amine component. […] (The “tr” indicates a trace amount.) Furthermore, Tween-80 was added to the reaction system to a final concentration of 0.1% in the case of using L-Trp-OMe. (The “+” mark indicates those peptides for which production was confirmed but which were unable to be quantified due to the absence of a standard.) […] (The “tr” indicates a trace amount.) Peptide production was examined using various L-amino acid amides for the carboxy component, and various L-amino acids for the amine component. […] Peptide production was examined in the case of using various L-alanine methyl esters for the carboxy component and C-protected L-amino acids for the amine component. […] Peptide production was examined in the case of using various amino acid methyl esters for the carboxy component and methylamine for the amine component. […] Peptide production was examined in the case of using β-amino acid ester for the carboxy component or β-amino acid for the amine component. […] (The “tr” indicates a trace amount.) Oligopeptide production was examined in the case of using L-amino acid ester for the carboxy component and peptide for the amine component. […] Substrate specificity was additionally assessed using the same enzyme fraction as that used in Example 5. […] (A “+” mark indicates those for which production was confirmed but which were unable to be quantified due to the absence of a standard, while “tr” indicates a trace amount). Substrate specificity with respect to oligopeptide production was assessed using the same enzyme fraction as Example 26. […] (A “+” mark indicates those for which production was confirmed but which were unable to be quantified due to the absence of a standard, while “tr” indicates a trace amount). It should be noted that hydrochlorides were used for all of the carboxy components.

[3] = test system: peptide-producing enzyme (Mono S fraction) from Empedobacter brevis strain FERM BP-8113; assay: Enzyme substrate specificity (1)-(10), (13), (14); format: biochemical; conditions: pH 9.0, 25° C., 3 hours
How it was run: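 Mono S-purified peptide-forming enzyme from Empedobacter brevis FERM BP-8113, given L-amino acid esters (hydrochlorides) or amides as carboxy component with amino acids, C-protected amino acids, methylamine, β-amino acids or peptides as amine component. Dipeptide/oligopeptide product quantified; Tween-80 0.1% added with L-Trp-OMe.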

[4] = test system: Empedobacter brevis strain FERM BP-8113 microbial cells; assay: Production of peptide using microbial cells of Empedobacter brevis; format: cell-based; conditions: microbial cell suspension 100 g/L mixed 1:1 with 200 mM carboxy component and 400 mM amino acid, pH 9.0, 10 mM EDTA, 18° C., 2 hours
Method: A 50 mL medium (pH 6.2) containing 5 grams (hereinafter, “g”) of glucose, 5 g of ammonium sulfate, 1 g of monopotassium phosphate, 3 g of dipotassium phosphate, 0.5 g of magnesium sulfate, 10 g of yeast extract and 10 g of peptone in 1 liter (hereinafter, “L”) was transferred to a 500 mL Sakaguchi flask and sterilized at 115° C. for 15 minutes. This medium,was then inoculated with one loopful of the culture broth of Empedobacter brevis strain FERM BP-8113 (Depositary institution: National Institute for Advanced Industrial Science and Technology, International Patent Organism Depositary, Address of depositary institution: Chuo Dai-6, 1-1 Higashi 1-Chome, Tsukuba-shi, Ibaraki-ken, Japan, International deposit transfer date: Jul. 8, 2002) that had been cultured at 30° C. for 16 hours in the same medium, followed by shake culturing at 30° C. for 16 hours and 120 strokes/min.

[5] = test system: peptide-producing enzyme (Mono S fraction) from Empedobacter brevis strain FERM BP-8113; assay: Production of L-alanyl-L-glutamine from L-alanine methyl ester and L-glutamine with enzyme fraction; format: biochemical; conditions: for L-Ala-L-Gln: L-alanine methyl ester hydrochloride 100 mM, 18° C., 2 hours
Method: On the other hand, there was hardly any production of L-Ala-L-Gln observed in an enzyme-non-added lot, and the […] was only about 0.07 mM after reacting for 120 minutes.

[6] = test system: enzyme (SP-Sepharose HP fraction) derived from Sphingobacterium sp. strain FERM BP-8124; format: biochemical; conditions: pH 9.0, 25° C.
How it was run: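 Purified enzyme (SP-Sepharose HP fraction, 0.33 units) reacted with carboxy components (100 mM, as hydrochlorides) and amine components (150 mM) in 100 mM borate buffer pH 9.0 with 10 mM EDTA. Reactions ran 1.5 h at 25 °C to assess peptide and oligopeptide formation.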

[7] = inhibitor at 10 mM, pH 9.0, 25° C., 5 minutes, 100 = absence of enzyme inhibitor
[8] = oligopeptide production, amount of enzyme 0.2 units, pH 9.0, 25° C., 3 hours

O=C(O)CN(CCN(CC(=O)O)CC(=O)O)CC(=O)O [EDTA, ethylenediaminetetraacetic acid]
Relative activity of L-Ala-L-Gln production (%) [1, 7]: 96%

C[C@H](N)C(=O)N[C@@H](Cc1ccc2ccccc2c1)C(=O)O [H-Ala-2-Nal-OH] (H-Ala-[2Nal]-OH)
Produced peptide (mM) ([2]; carboxy component 20 mM, amine component 20 mM, 0.1 unit enzyme, 25° C., reaction time 3 hr): +

N[C@@H](CC1CCCCC1)C(=O)N[C@@H](Cc1ccccc1)C(=O)O [H-CHA-Phe-OH] (H-[Cha]-Phe-OH)
Produced peptide (mM) ([2]; carboxy component 40 mM, amine component 40 mM, 0.1 unit enzyme, 25° C., reaction time 3 hr): +

CC(C)(C)OC(=O)NCCCC[C@H](N)C(=O)N[C@@H](CCC(N)=O)C(=O)O [H-Lys(Boc)-Gln-OH] (H-Lys(Boc)-Gln-OH)
Produced peptide (mM) ([2]; carboxy component 100 mM, amine component 150 mM, 0.1 unit enzyme, 25° C., reaction time 2 hr): +

C[C@H](N)C(=O)N[C@@H](CCC(N)=O)C(=O)O [L-Ala-L-Gln, L-alanyl-L-glutamine] (H-Ala-Gln-OH)
Produced peptide ([3]; 100 mM L-alanine methyl ester hydrochloride, L-amino acid 150 mM): 79.3 mM | Produced peptide ([3]; L-amino acid amide hydrochloride 100 mM as carboxy component, L-amino acid 150 mM): 7.6 mM | Produced peptide ([3]; L-amino acid methyl ester hydrochloride 100 mM, 150 mM L-glutamine): 74.6 mM | Produced peptide [4]: 68.0 mM | L-alanyl-L-glutamine produced ([5]; 3 μl enzyme fraction, 100 mM L-alanine methyl ester hydrochloride, 200 mM L-glutamine, pH 9.0, 18° C., enzyme-added lot (FIG. 3)): 83 mM | L-Ala-L-Gln ([5]; L-glutamine 100 mM): 68.2 mM | L-Ala-L-Gln ([5]; L-glutamine 110 mM): 72.1 mM | L-Ala-L-Gln ([5]; L-glutamine 120 mM): 73.3 mM | L-Ala-L-Gln ([5]; L-glutamine 130 mM): 75.1 mM | L-Ala-L-Gln ([5]; L-glutamine 150 mM): 75.5 mM | L-Ala-L-Gln ([5]; L-glutamine 200 mM): 82.0 mM | L-alanyl-L-glutamine produced ([6]; 10 μl SP-Sepharose HP fraction (about 27 U/ml) in 90 μl with 111 mM L-alanine methyl ester hydrochloride, 222 mM L-glutamine, 120 minutes, enzyme-added lot): 73 mM | Produced peptide ([6]; Table 15-4, amides or methylamine as components, 100 mM / 150 mM, 0.33 units enzyme, 1.5 hours): 0.3 mM

O=C(O)CI [Monoiodoacetate]
Relative activity of L-Ala-L-Gln production (%) ([1]; pH 9): 101%

CCN1C(=O)C=CC1=O [N-Ethyl maleimide]
Relative activity of L-Ala-L-Gln production (%) [1, 7]: 110%

O=S(=O)(F)Cc1ccccc1 [Phenylmethylsulfonyl fluoride]
Relative activity of L-Ala-L-Gln production (%) [1, 7]: 115% | Inhibition of the enzyme (in words) [1]: not inhibited

c1cnc2c(c1)ccc1cccnc12 [o-Phenanthroline]
Relative activity of L-Ala-L-Gln production (%) [1, 7]: 96%

N=C(N)Nc1ccc(C(=O)Oc2ccc([N+](=O)[O-])cc2)cc1 [p-Nitrophenyl-p′-guanidino benzoate, p-nitrophenyl-p′-guanidinobenzoate]
Relative activity of L-Ala-L-Gln production (%) [1, 7]: 0.1% | Inhibition of the enzyme (in words) [1]: inhibited

L-Ala-Gly-Gly-L-Phe-L-Met
Produced peptide (mM) [2, 8]: +

L-Ala-Gly-L-Phe
Produced peptide (mM) ([2]; oligopeptide production, amount of enzyme 0.1 units, pH 9.0, 25° C., 3 hours): +

L-Ala-L-Ala-L-Gln
Produced peptide ([3]; L-amino acid ester 100 mM, amino acid or peptide amine component 150 mM): 15.2 mM | concentration of by-product ([5]; 3 μl enzyme fraction, 100 mM L-alanine methyl ester hydrochloride, 200 mM L-glutamine, pH 9.0, 18° C., enzyme-added lot): 1.3 mM

L-Ala-L-Phe-L-Met
Produced peptide (mM) [2, 8]: +

Reference: patent US20040253665A1, “Novel peptide-producing enzyme, microbe producing the enzyme and method for dipeptide synthesis using them” (AJINOMOTO CO., INC., priority 2002, published 2004)
